From patent publication US20130261045A1, “GREEN TEA POLYPHENOL ALPHA SECRETASE ENHANCERS AND METHODS OF USE” (UNIVERSITY OF SOUTH FLORIDA, priority 2005, published 2013) come the findings set out here.

SMILES strings stand for the structures.

What all share (format): cell-based, murine
The test system of one assay is Aβ1-40 and Aβ1-42. The experiment in a line: Aβ1-40/Aβ1-42 ELISA, conditioned media of SweAPP N2a cells (Examples 6-7, with or without siRNA knock-down). The conditions noted are these: various doses of EGCG, 8 h. From the text:
FIGS. 8A-8H show EGCG-induced ADAM10 activation correlates with APP α-secretase cleavage in vitro. […] Data were represented as % change relative to control (medium from cultured SweAPP N2a cells or primary neuronal cells without any treatment).
FIGS. 10A-10C show ADAM10 is required for EGCG-induced APP α-secretase cleavage. […] In FIG. 10A, cell lysates were subjected to WB for APP CTFs and ADAM10 cleavage analyses. […] In FIG. 10B, cell culture media were subjected to WB for sAPP-α secretion. […] In FIG. 10C, cell culture media were subjected to Aβ ELISA. Data are represented as % change relative to control (medium from cultured SweAPP N2a cells without any treatment). […]
Conditioned media were collected and analyzed at a 1:1 dilution using the method as previously described (Tan et al., 2002) and values were reported as percentage of Aβ1-x secreted relative to control. Quantitation of total Aβ species was performed according to published methods (Marambaud, P. et al., 2005). […] The optical density of each well was immediately determined by a microplate reader at 450 nm. In addition, Aβ1-40, or Aβ1-42 was separately quantified in these samples using the Aβ1-40 Aβ1-42 ELISA kits (IBL-America, Minneapolis, Minn.) in accordance with the manufacturer's instructions. In all cases, Aβ levels were expressed as a percentage of control (conditioned medium from untreated SWeAPP N2a cells). […]
For orientation: An ELISA detects its analyte on a solid surface through an enzyme-linked reagent.

The next assay concerns ADAM10. The experiment in a line: Western blot of ADAM10 maturation in SweAPP N2a cells. As for the experimental part: (§1) Cultured cells were lysed in ice-cold lysis buffer described above, and an aliquot corresponding to 50 μg of total protein was electrophoretically separated using 16.5% Tris-tricine gels. Electrophoresed proteins were then transferred to PVDF membranes (Bio-Rad, Richmond, Calif.), washed in ddH2O, and blocked for 1 h at ambient temperature in Tris-buffered saline (TBS; Bio-Rad) containing 5% (w/v) non-fat dry milk. After blocking, membranes were hybridized for 1 h at ambient temperature with various primary antibodies. Membranes were then washed 3 times for 5 min each in ddH2O and incubated for 1 h at ambient temperature with the appropriate HRP-conjugated secondary antibody (1:1,000, Pierce Biotechnology, Inc. Rockford, Ill.). All antibodies were diluted in TBS containing 5% (w/v) of non-fat dry milk. Blots were developed using the luminol reagent (Pierce Biotechnology). Densitometric analysis was done using the Fluor-S MultiImager™ with Quantity One™ software (Bio-Rad). For examining sAPP-α, conditioned medium was collected following treatment according to a modified protocol from Chen and Fernandez (Chen et al., 2004). sAPP-α was extracted using 3K Nanosep centrifugal filters (Pall Life Sciences, Ann Arbor, Mich.) and protein concentrate was prepared for the aforementioned electrophoresis. […]

Another assay relates to ADAM9. The experiment in a line: Western blot of ADAM9 in SweAPP N2a cells. The conditions noted are these: EGCG treatment; data not shown. The procedure: as §1
Another assay has as its system ADAM10 mRNA. The experiment in a line: RT-PCR of ADAM10 mRNA in SweAPP N2a cells. To be noted: various doses of EGCG, 8 h.

Experimental for ADAM10 mRNA: Analysis of murine ADAM10 was conducted according to previously published methods (Ehrhart et al., 2005; Park et al., 2001). Briefly, total RNA was isolated from SweAPP N2a cells and subjected to reverse transcription utilizing a commercially available kit (cDNA Cycle® kit; Invitrogen, Carlsbad, Calif.) according to the manufacturer's instructions on a Bio-Rad iCycler thermocycler. […] Thermocycler conditions consisted of an initial denaturing step at 95° C. for 15 min, followed by 35 cycles of 94° C. for 30 s, 50° C. for 1 min, and 72° C. for 1 min at, and a final extension step at 72° C. for 10 min. Resolution and analysis of PCR products (murine ADAM10: 881 bp, murine γ-actin: 357 bp) band densities was conducted by ethidium bromide-stained agarose gel electrophoresis and identified using UV transillumination by comparisons with molecular weight markers (Invitrogen). Samples that were not subjected to reverse transcription were run in parallel as negative controls to rule out DNA contamination as a template for PCR products (data not shown). A “no template control” was also included for each primer set as a further negative control (data not shown). Amplification of γ-actin was used to normalize for input cDNA.

As for `O=C(O[C@@H]1Cc2c(O)cc(O)cc2O[C@@H]1c1cc(O)c(O)c(O)c1)c1cc(O)c(O)c(O)c1` [EGCG, (−)-epigallocatechin-3-gallate], in the assay with Aβ1-40 and Aβ1-42, the Aβ1-40 concentration entry is given as “dose-dependent reductions” and the Aβ1-42 concentration entry is “dose-dependent reductions”. For the same compound, in the assay on ADAM10 (20 μM, as early as 30 min, continued to increase through 120 min), the “mature ADAM10, temporal analysis” value is “significant increases”. In the assay with ADAM10 (various doses of EGCG, 8 h), the “mature ADAM10 (~60 kDa isoform) protein level” value is reported as “dose-dependently increased”. Besides, the ADAM9 expression entry in the assay with ADAM9 was “no significant effects”. Further, the “ADAM10 mRNA levels” value in the assay with ADAM10 mRNA is recorded as “no significant between-EGCG dose differences”.
